Calls of active or inactive are those of the source. The calls are words filed in the database; no cut-off is given here.
Columns and labels:
[1] = biological target: NACHT, LRR and PYD domains-containing protein 3 (Mus musculus, UniProt Q8R4B8); assay: Inhibition of NLRP3 inflammasome activation in ICR mouse BMDM assessed as inhibition of LPS/ATP-stimulated IL-1 beta production in cell supernatant treated for 3 hrs with LPS followed by incubation with compound for 1 hr and later stimulated with ATP for 0.5 hrs by ELISA; format: cell-based
Chain of NACHT, LRR and PYD domains-containing protein 3 (Q8R4B8 whole entry, the tested form may be a part): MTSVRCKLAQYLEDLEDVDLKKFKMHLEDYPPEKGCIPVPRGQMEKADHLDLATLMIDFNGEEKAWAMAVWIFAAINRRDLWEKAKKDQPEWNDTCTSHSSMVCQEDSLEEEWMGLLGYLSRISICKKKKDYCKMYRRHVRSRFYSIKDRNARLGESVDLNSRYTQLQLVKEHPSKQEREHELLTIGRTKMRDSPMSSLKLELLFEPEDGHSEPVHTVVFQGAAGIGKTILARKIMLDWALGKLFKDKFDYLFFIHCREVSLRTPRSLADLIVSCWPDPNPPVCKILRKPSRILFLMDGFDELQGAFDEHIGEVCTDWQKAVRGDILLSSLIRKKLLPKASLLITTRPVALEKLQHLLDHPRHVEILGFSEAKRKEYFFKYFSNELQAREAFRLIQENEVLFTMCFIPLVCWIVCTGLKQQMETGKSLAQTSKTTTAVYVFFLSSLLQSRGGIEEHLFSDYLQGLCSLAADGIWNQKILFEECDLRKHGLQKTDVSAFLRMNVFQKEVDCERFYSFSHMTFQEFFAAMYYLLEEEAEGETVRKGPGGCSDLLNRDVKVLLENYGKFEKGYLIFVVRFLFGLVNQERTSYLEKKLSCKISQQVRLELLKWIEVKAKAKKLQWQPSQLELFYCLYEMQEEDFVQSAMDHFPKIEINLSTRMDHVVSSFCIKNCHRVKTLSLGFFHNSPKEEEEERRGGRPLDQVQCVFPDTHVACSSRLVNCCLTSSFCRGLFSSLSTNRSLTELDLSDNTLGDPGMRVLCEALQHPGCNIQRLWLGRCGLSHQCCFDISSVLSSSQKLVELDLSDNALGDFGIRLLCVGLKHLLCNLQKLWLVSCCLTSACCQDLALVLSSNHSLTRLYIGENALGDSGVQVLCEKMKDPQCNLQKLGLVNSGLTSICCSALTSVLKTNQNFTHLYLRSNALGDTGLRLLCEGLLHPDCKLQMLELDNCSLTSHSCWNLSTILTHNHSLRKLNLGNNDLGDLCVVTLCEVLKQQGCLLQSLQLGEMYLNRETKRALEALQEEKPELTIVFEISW

[2] = Cytotoxicity against ICR mouse BMDM assessed as reduction in cell viability incubated for 24 hrs by CCK8 assay; format: toxicity, cell-based; settings: BMDM (bone marrow-derived macrophages)
Mus musculus [3] = assay: (§1) Anti-inflammatory activity against LPS-stimulated acute lung injury C57BL/6 mouse model assessed as decrease in thickening of alveolar septa in right lung at 5 mg/kg, ip treated for 3 days and on third day administered with LPS at 30 mins post-compound challenge and measured after 12 hrs by Hematoxylin-Eosin staining analysis; format: functional, organism-based; settings: time 3.5 day
Mus musculus [4] = assay: as §1, with “in” for “in thickening of”, “dilation” for “septa”; format: functional, organism-based; settings: time 3.5 day
Mus musculus [5] = assay: as §1, with “inflammatory cell infiltration” for “thickening of alveolar septa”; format: functional, organism-based; settings: time 3.5 day
Mus musculus [6] = assay: Anti-inflammatory activity against LPS-stimulated acute lung injury C57BL/6 mouse model assessed as decrease in weight loss at 5 mg/kg, ip treated for 3 days and on third day administered with LPS at 30 mins post-compound challenge; format: functional, organism-based; settings: time 3.0 day
Mus musculus [7] = assay: as §1, with “partial” for “thickening of”, “congestion” for “septa”; format: functional, organism-based; settings: time 3.5 day
Mus musculus [8] = assay: Anti-inflammatory activity against LPS-stimulated acute lung injury C57BL/6 mouse model assessed as active animal at 5 mg/kg, ip treated for 3 days and on third day administered with LPS at 30 mins post-compound challenge; format: functional, organism-based; settings: time 3.0 day
Mus musculus [9] = assay: Anti-inflammatory activity against LPS-stimulated acute lung injury C57BL/6 mouse model assessed as decrease in weight loss at 1 mg/kg, ip treated for 3 days and on third day administered with LPS at 30 mins post-compound challenge; format: functional, organism-based; settings: time 3.0 day

| IC50 [1] | SMILES | IC50 at 24 h [2] | other results |
| --- | --- | --- | --- |
| 80.8 nM | C=C1C(=O)[C@]23[C@H](OC(=O)Nc4cccc(Cl)c4)[C@H]1CC[C@H]2[C@]12C=CCC(C)(C)[C@H]1[C@H](O)[C@@]3(O)OC2 | > 10000 nM | – |
| 74.9 nM | C=C1C(=O)[C@]23[C@H](OC(=O)Nc4cccc5ccccc45)[C@H]1CC[C@H]2[C@]12C=CCC(C)(C)[C@H]1[C@H](O)[C@@]3(O)OC2 | > 10000 nM | – |
| – | C[C@@H]1C[C@H]2[C@@H]3CCC4=CC(=O)C=C[C@]4(C)[C@@]3(F)[C@@H](O)C[C@]2(C)[C@@]1(O)C(=O)CO | – | Activity (Mus musculus [3]): Active; Activity (Mus musculus [4]): Active; Activity (Mus musculus [5]): Active; Activity (Mus musculus [6]): Active; Activity (Mus musculus [7]): Active; Activity (Mus musculus [8]): Active |
| 178 nM | C=C1C(=O)[C@]23[C@H](OC(=O)NC4CCCC4)[C@H]1CC[C@H]2[C@]12C=CCC(C)(C)[C@H]1[C@H](O)[C@@]3(O)OC2 | > 10000 nM | – |
| – | CC(C)(O)c1coc(S(=O)(=O)NC(=O)Nc2c3c(cc4c2CCC4)CCC3)c1 | > 10000 nM | – |
| 88.6 nM | C=C1C(=O)[C@]23[C@H](OC(=O)Nc4ccccc4Cl)[C@H]1CC[C@H]2[C@]12C=CCC(C)(C)[C@H]1[C@H](O)[C@@]3(O)OC2 | > 10000 nM | – |
| 135 nM | C=C1C(=O)[C@]23[C@H](OC(=O)NC4CCCCC4)[C@H]1CC[C@H]2[C@]12C=CCC(C)(C)[C@H]1[C@H](O)[C@@]3(O)OC2 | > 10000 nM | – |
| 96.1 nM | C=C1C(=O)[C@]23[C@H](OC(=O)Nc4ccccn4)[C@H]1CC[C@H]2[C@]12C=CCC(C)(C)[C@H]1[C@H](O)[C@@]3(O)OC2 | > 10000 nM | – |
| 1240 nM | C=C1C(=O)[C@]23[C@H](O)[C@H]1CC[C@H]2[C@@]12CO[C@]3(O)[C@@H](O)[C@@H]1C(C)(C)CC[C@@H]2O [ORIDONIN] | > 10000 nM | Activity (Mus musculus [9]): Active |

| SMILES | IC50 [1] | IC50 at 24 h [2] | other results |
| --- | --- | --- | --- |
| C=C1C(=O)[C@]23[C@H](O)[C@H]1CC[C@H]2[C@]12C=CCC(C)(C)[C@H]1[C@H](O)[C@@]3(O)OC2 | 131 nM | > 10000 nM | – |
